A short description of the series: Solubility of peptide G in water. It is filed as physicochemical. The method, then: Peptide G was obtained by convergent solid-phase synthesis through condensation of peptide segments, which, in turn, were obtained either on a polymer surface or in solution. Peptide G was purified by preparative HPLC to 98% purity on a Knauer chromatograph (Germany) using a Kromasil 100-10 ODS column (Sweden) (30 × 250 mm). Analytical HPLC was performed on a Kromasil 100-5 C18 column (4.6 × 250 mm) with a 5-μm sorbent particle size. The following eluents were used: 0.1% TFA as buffer A and 80% acetonitrile in buffer A as buffer B. The elution was carried out in a linear buffer B gradient ranging from 20 to 80% for 30 min at a rate of 1 ml/min. Detection was performed at λ = 220 nm (Supplementary materials; Fig. S1). The peptide structure was confirmed by MALDI-TOF/TOF mass spectrometry on an UltrafleXtreme Bruker Daltonics GmbH mass spectrometer (Germany) equipped with a UV laser (Nd) (Supplementary materials, Fig. S2).

What is called solubility is the concentration that dissolves in the medium under given conditions. High values mean a readily soluble substance, low ones a poorly soluble substance. `CC[C@H](C)[C@H](NC(=O)[C@H](C)NC(=O)[C@H](Cc1c[nH]cn1)NC(=O)[C@@H]1CCCN1C(=O)CNC(=O)[C@H](CC(C)C)NC(=O)[C@H](CC(C)C)NC(=O)[C@H](Cc1ccc(O)cc1)NC(=O)CNC(=O)[C@H](C)NC(=O)[C@H](CO)NC(=O)[C@H](CC(N)=O)NC(=O)[C@H](CC(C)C)NC(=O)[C@@H](NC(=O)[C@H](Cc1c[nH]c2ccccc12)NC(=O)CN)[C@@H](C)O)C(=O)N[C@@H](CC(=O)O)C(=O)N[C@@H](CC(N)=O)C(=O)N[C@@H](Cc1c[nH]cn1)C(=O)N[C@@H](CCCNC(=N)N)C(=O)N[C@@H](CO)C(=O)N[C@@H](Cc1ccccc1)C(=O)N[C@@H](CO)C(=O)N[C@@H](CC(=O)O)C(=O)N[C@@H](CCCCN)C(=O)N[C@@H](Cc1c[nH]cn1)C(=O)NCC(=O)N[C@@H](CC(C)C)C(=O)N[C@H](C(N)=O)[C@@H](C)O` [G, galanin]: the solubility was more than 40 mg/mL.

The values are drawn from publication PMC12011184, “Galanin Reduces Myocardial Ischemia/Reperfusion Injury in Rats with Streptozotocin Diabetes” (Acta Naturae, 2025).
